Data: PubChem BioAssay (NCI)
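Five concentrations, 48 hours, 96-well plates. Definition used: TGI = concentration required for complete inhibition of growth.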

Experiments:
Assay in all cases: growth of human tumour cells (NCI), 48 h
786-0 renal = system: 786-0 renal
A549 NSCLC = system: A549 NSCLC
ACHN renal = system: ACHN renal
CAKI-1 renal = system: CAKI-1 renal
CCRF-CEM leukemia = system: CCRF-CEM leukemia
COLO 205 colon = system: COLO 205 colon
DLD-1 colon = system: DLD-1 colon
DMS 114 small cell lung = system: DMS 114 small cell lung
DMS 273 small cell lung = system: DMS 273 small cell lung
EKVX NSCLC = system: EKVX NSCLC
HCC-2998 colon = system: HCC-2998 colon
HCT-116 colon = system: HCT-116 colon
HCT-15 colon = system: HCT-15 colon
HL-60(TB) leukemia = system: HL-60(TB) leukemia
HOP-18 NSCLC = system: HOP-18 NSCLC
HOP-62 NSCLC = system: HOP-62 NSCLC
HOP-92 NSCLC = system: HOP-92 NSCLC
HT29 colon = system: HT29 colon
IGROV1 ovarian = system: IGROV1 ovarian
K-562 leukemia = system: K-562 leukemia
KM12 colon = system: KM12 colon
KM20L2 colon = system: KM20L2 colon
LOX IMVI melanoma = system: LOX IMVI melanoma
LXFL 529 NSCLC = system: LXFL 529 NSCLC
M14 melanoma = system: M14 melanoma
M19-MEL melanoma = system: M19-MEL melanoma
MALME-3M melanoma = system: MALME-3M melanoma
MOLT-4 leukemia = system: MOLT-4 leukemia
NCI-H226 lung = system: NCI-H226 lung
NCI-H23 lung = system: NCI-H23 lung
NCI-H460 lung = system: NCI-H460 lung
NCI-H522 lung = system: NCI-H522 lung
OVCAR-3 ovarian = system: OVCAR-3 ovarian
OVCAR-4 ovarian = system: OVCAR-4 ovarian
OVCAR-5 ovarian = system: OVCAR-5 ovarian
OVCAR-8 ovarian = system: OVCAR-8 ovarian
RPMI-8226 leukemia = system: RPMI-8226 leukemia
RXF 393 renal = system: RXF 393 renal
RXF-631 renal = system: RXF-631 renal
SF-268 CNS = system: SF-268 CNS
SF-295 CNS = system: SF-295 CNS
SF-539 CNS = system: SF-539 CNS
SK-MEL-2 melanoma = system: SK-MEL-2 melanoma
SK-MEL-28 melanoma = system: SK-MEL-28 melanoma
SK-MEL-5 melanoma = system: SK-MEL-5 melanoma
SK-OV-3 ovarian = system: SK-OV-3 ovarian
SN12C renal = system: SN12C renal
SNB-19 CNS = system: SNB-19 CNS
SNB-75 CNS = system: SNB-75 CNS
SNB-78 CNS = system: SNB-78 CNS
SR leukemia = system: SR leukemia
SW-620 colon = system: SW-620 colon
TK-10 renal = system: TK-10 renal
U251 CNS = system: U251 CNS
UACC-257 melanoma = system: UACC-257 melanoma
UACC-62 melanoma = system: UACC-62 melanoma
XF 498 CNS = system: XF 498 CNS
A498 renal = system: A498 renal
UO-31 renal = system: UO-31 renal

## CCCCN(CCCC)CC(C(C)=O)C(c1ccccc1)c1c(O)c2ccccc2oc1=O (stereo unspecified)
786-0 renal
  TGI: > 100 µM
A549 NSCLC
  TGI: > 100 µM
ACHN renal
  TGI: > 100 µM
CAKI-1 renal
  TGI: > 100 µM
CCRF-CEM leukemia
  TGI: > 100 µM
COLO 205 colon
  TGI: > 100 µM
DLD-1 colon
  TGI: > 100 µM
DMS 114 small cell lung
  TGI: > 100 µM
DMS 273 small cell lung
  TGI: > 100 µM
EKVX NSCLC
  TGI: > 100 µM
HCC-2998 colon
  TGI: > 100 µM
HCT-116 colon
  TGI: > 100 µM
HCT-15 colon
  TGI: > 100 µM
HL-60(TB) leukemia
  TGI: > 100 µM
HOP-18 NSCLC
  TGI: > 100 µM
HOP-62 NSCLC
  TGI: > 100 µM
HOP-92 NSCLC
  TGI: > 100 µM
HT29 colon
  TGI: > 100 µM
IGROV1 ovarian
  TGI: > 100 µM
K-562 leukemia
  TGI: > 100 µM
KM12 colon
  TGI: > 100 µM
KM20L2 colon
  TGI: > 100 µM
LOX IMVI melanoma
  TGI: > 100 µM
LXFL 529 NSCLC
  TGI: > 100 µM
M14 melanoma
  TGI: > 100 µM
M19-MEL melanoma
  TGI: > 100 µM
MALME-3M melanoma
  TGI: > 100 µM
MOLT-4 leukemia
  TGI: > 100 µM
NCI-H226 lung
  TGI: > 100 µM
NCI-H23 lung
  TGI: > 100 µM
NCI-H460 lung
  TGI: > 100 µM
NCI-H522 lung
  TGI: > 100 µM
OVCAR-3 ovarian
  TGI: > 100 µM
OVCAR-4 ovarian
  TGI: > 100 µM
OVCAR-5 ovarian
  TGI: > 100 µM
OVCAR-8 ovarian
  TGI: > 100 µM
RPMI-8226 leukemia
  TGI: > 100 µM
RXF 393 renal
  TGI: > 100 µM
RXF-631 renal
  TGI: > 100 µM
SF-268 CNS
  TGI: > 100 µM
SF-295 CNS
  TGI: > 100 µM
SF-539 CNS
  TGI: > 100 µM
SK-MEL-2 melanoma
  TGI: > 100 µM
SK-MEL-28 melanoma
  TGI: > 100 µM
SK-MEL-5 melanoma
  TGI: > 100 µM
SK-OV-3 ovarian
  TGI: > 100 µM
SN12C renal
  TGI: > 100 µM
SNB-19 CNS
  TGI: > 100 µM
SNB-75 CNS
  TGI: 76.3 µM
SNB-78 CNS
  TGI: > 100 µM
SR leukemia
  TGI: > 100 µM
SW-620 colon
  TGI: > 100 µM
TK-10 renal
  TGI: > 100 µM
U251 CNS
  TGI: > 100 µM
UACC-257 melanoma
  TGI: > 100 µM
UACC-62 melanoma
  TGI: > 100 µM
XF 498 CNS
  TGI: > 100 µM

## CC(=O)Oc1ccc2c(c1)C(=O)c1nc(C)c(C)nc1C2=O
786-0 renal
  TGI: > 96.5 µM
A498 renal
  TGI: > 91.7 µM
A549 NSCLC
  TGI: > 100 µM
ACHN renal
  TGI: > 100 µM
CAKI-1 renal
  TGI: > 100 µM
CCRF-CEM leukemia
  TGI: > 100 µM
COLO 205 colon
  TGI: > 100 µM
DLD-1 colon
  TGI: > 100 µM
DMS 114 small cell lung
  TGI: > 76.4 µM
DMS 273 small cell lung
  TGI: > 100 µM
EKVX NSCLC
  TGI: > 78.6 µM
HCC-2998 colon
  TGI: > 100 µM
HCT-116 colon
  TGI: > 100 µM
HCT-15 colon
  TGI: > 100 µM
HL-60(TB) leukemia
  TGI: 56.4 µM
HOP-18 NSCLC
  TGI: > 100 µM
HOP-62 NSCLC
  TGI: > 100 µM
HOP-92 NSCLC
  TGI: > 100 µM
HT29 colon
  TGI: > 91.7 µM
IGROV1 ovarian
  TGI: > 100 µM
K-562 leukemia
  TGI: > 100 µM
KM12 colon
  TGI: > 100 µM
KM20L2 colon
  TGI: > 100 µM
LOX IMVI melanoma
  TGI: > 100 µM
LXFL 529 NSCLC
  TGI: > 100 µM
M14 melanoma
  TGI: > 100 µM
M19-MEL melanoma
  TGI: 9.42 µM
MALME-3M melanoma
  TGI: 38 µM
MOLT-4 leukemia
  TGI: > 100 µM
NCI-H226 lung
  TGI: > 100 µM
NCI-H23 lung
  TGI: > 100 µM
NCI-H460 lung
  TGI: > 90.1 µM
NCI-H522 lung
  TGI: 89.6 µM
OVCAR-3 ovarian
  TGI: 59.1 µM
OVCAR-4 ovarian
  TGI: > 89 µM
OVCAR-5 ovarian
  TGI: > 100 µM
OVCAR-8 ovarian
  TGI: > 100 µM
RPMI-8226 leukemia
  TGI: > 100 µM
RXF 393 renal
  TGI: 96.4 µM
RXF-631 renal
  TGI: > 91.9 µM
SF-268 CNS
  TGI: > 100 µM
SF-295 CNS
  TGI: > 100 µM
SF-539 CNS
  TGI: 55.4 µM
SK-MEL-2 melanoma
  TGI: > 86.3 µM
SK-MEL-28 melanoma
  TGI: > 100 µM
SK-MEL-5 melanoma
  TGI: 30.1 µM
SK-OV-3 ovarian
  TGI: > 100 µM
SN12C renal
  TGI: > 100 µM
SNB-19 CNS
  TGI: > 93.8 µM
SNB-75 CNS
  TGI: > 100 µM
SNB-78 CNS
  TGI: > 100 µM
SR leukemia
  TGI: > 89 µM
SW-620 colon
  TGI: > 100 µM
TK-10 renal
  TGI: > 100 µM
U251 CNS
  TGI: > 100 µM
UACC-257 melanoma
  TGI: > 66.4 µM
UACC-62 melanoma
  TGI: 38.8 µM
UO-31 renal
  TGI: > 100 µM
XF 498 CNS
  TGI: > 100 µM
